Measurements published in patent US20230233488A1, “NOVEL USE OF A MODULATOR OF GLUCOSYLCERAMIDE DEGRADATION FOR VIRAL INFECTIONS” (SPEDDING RESEARCH SOLUTIONS, SAS, priority 2020, published 2023).
pIC50: −log10 of the molar value.

How the values were obtained:
[1] = test system: dengue virus serotype 2—strain 16681 (DENV2); test: DENV2 infection of Huh7 cells, infectious virus release in supernatants (plaque assay on BHK cells); type: cell-based
Description: • 2.1 Material and methods Huh7, human hepatoma cells were used for all primary experiments. For all siRNA experiments, cells were seeded in 24-well plates at a concentration of 2×10^5 cells/well in DMEM and 10% FBS. […] During siRNA and drug treatment the media was removed and replaced with DMEM and 2% FBS and a corresponding concentration of siRNA or ambroxol. During viral infection, all media is removed and set aside, and a viral inoculum is added to the cells. The cells and viral inoculum are incubated for 1 hr at room temperature on a rocker. The virus is then aspirated from cells, cells are washed with 1Xphosphate buffer saline (PBS), the media is re-added to the cells, and cells are incubated at 37° C. and 5% CO2 for 24 h. […] Plaque assay analysis of infectious virus release from supernatants was conducted on baby hamster kidney cells (BHK cells). BHK cells are maintained in MEM with 10% FBS. For plaque assays, BHKs are seeded in 6 well plates at a density of […] cells/well. The following day, dilutions of viral supernatants collected from samples are applied to BHK cells, followed by a 1 hr incubation at room temperature, and then cells are overlaid with MEM containing 5% FBS and 2% agarose. Plaques are counted at 6 days post infection. For qRT-PCR analysis, cells are collected post infection in TRIzol reagent (Invitrogen), and RNA is extracted per manufacturer's protocol. A one-step qRT-PCR kit from Agilent (Brilliant III Ultra Fast SYBR Green qRT-PCR Kit) is used to assess viral genome copies. A standard curve of viral RNA is generated using a viral RNA from a cDNA subclone of DENV2 as described in Gullberg RC, et al. 2018. Copies of viral RNA are normalized to the ribosomal protein lateral stalk protein subunit PO (RPLPO) gene using the delta delta Cq method also described in Gullberg RC et al. 2018 (cited above).
Huh7 cells were treated with siRNA targeting glucosylceramidase beta 1 (GBA1) and infected with dengue virus serotype 2—strain 16681 (DENV2) with a multiplicity of infection or MOI=0.3) according to known techniques (Gullberg RC et al. 2018 cited above). After 24 hours post infection (hpi), supernatants were collected and analyzed via plaque assay on baby hamster kidney cells (BHK cells) for infectious virus release.
Huh7 cells were pre-treated with Ambroxol hydrochloride at 0.391, 0.781, 1.56, 3.125, 6.25, 12.5, 25, 50, 100, and 200 μM for 24 h, followed by DENV2 infection with MOI=0.1; or MOI=5). 24 hours post infection, supernatants were collected and analyzed via plaque assay on BHK cells.
Huh7 cells were treated with siRNAs targeting GBA1 and glucosylceramidase beta 2 (GBA2) enzymes followed by DENV2 infection with MOI=0.1; or MOI=5). 24 hpi, supernatants were collected and analyzed via plaque assay on BHK cells while RNA was extracted from cells and analyzed via qRT-PCR for DENV2 genome replication. Results

[2] = test system: SARS-CoV-2; test: Antiviral activity against SARS-CoV-2 in A549-ACE2 cells (supernatant viral load by RT-qPCR); conditions: for antiviral effect on SARS-CoV-2 replication / viral load: 10^−8 to 5.10^−5 M, 48 h, hydrochloride
[3] = test system: A549-ACE2 cells; test: Cytotoxicity in A549-ACE2 cells (AlamarBlue); conditions: 48 h incubation, 10^−8 to 5.10^−5 M
[4] = test system: Huh7 cells; test: Cytotoxicity in Huh7 cells (AlamarBlue); type: cell-based, human; conditions: 0.391 to 200 μM

Cl.Nc1c(Br)cc(Br)cc1CN[C@H]1CC[C@H](O)CC1 [Ambroxol, trans-4-(2-Amino-3,5-dibromobenzylamino) cyclohexanol hydrochloride]
potency against Dengue virus relative to SARS-CoV-2 ([1]; Dengue versus SARS-CoV-2): 10 fold
pIC50 ([1]; Dengue virus, DENV2, MOI 0.1, read-out: IC50 against Dengue virus): 6.07
concentration above which no detectable virus was released from cells ([1]; MOI=0.1, Huh7 cells, 24 h post infection): above 6.25 μM
DENV2 release from Huh7 cells, low MOI ([1]; MOI=0.1, all concentrations tested (0.391 to 200 μM), 24 h pre-treatment, 24 h post infection): statistically significant reduction of DENV2 release
concentration giving a statistically significant reduction of DENV2 release ([1]; MOI=5, Huh7 cells, 24 h post infection): ≥ 12.5 µM
DENV2 release from Huh7 cells, high MOI ([1]; MOI=5, all concentrations tested (0.391 to 200 μM), 24 h post infection): reduced DENV2 release
antiviral effect on SARS-CoV-2 replication / viral load [2]: significant concentration-dependent antiviral effect
antiviral effect on SARS-CoV-2 replication / viral load ([2]; listed as ambroxol): concentration-dependent effect reducing SARS-CoV-2 viral load
maximal antiviral effect compared with remdesivir ([2]; dose-response of FIG. 1C): equivalent to that of remdesivir
pIC50 ([2]; read-out: 50% effective concentration (IC50), SARS-CoV-2 supernatant viral load, MOI 0.1, 48 h post infection, hydrochloride): 4.66
cell viability (cytotoxicity) [3]: no toxic effects on cell viability
cytopathic effect on cells [4]: only the highest concentrations (100 μM and 200 μM) having any cytopathic effect
